These results are taken from patent US20140113314A1, “Two Pore Channels as a Therapeutic Target to Protect Against Myocardial Ischemia and as an Adjuvant in Cardiac Surgery” (priority 2006, published 2014).

Assay [1] has as its system NaCN induced current from isolated guinea pig ventricular myocytes. Put plainly: NaCN induced outward current, whole-cell patch clamp in single ventricular myocytes. It is filed as cell-based. Particulars: for peak current densities induced by NaCN in the presence of blocker / ratio of peak current density induced by NaCN in the presence of blocker to that on exposure to NaCN alone: blocker 200 μM; for sensitivity of NaCN induced current in the presence of altered internal pH: quinidine 0.5 mM (pHin 6.0), Zn^2+ 5 mM (pHin 9.0). Background: Patch clamp records ionic current or voltage across a cell membrane.

For assay [2] the test system is unchanged. The settings on record: Ba^2+ 5 mM, extracellular, previously demonstrated; cited from earlier work.
In assay [3] the test system is temperature jump (TJ) induced current in guinea pig myocytes. Nature of the assay: Temperature jump (TJ) induced current in myocytes. It is filed as cell-based. The source says: FIG. 15. The characterization of temperature jump (TJ) induced current in guinea pig myocytes. A. Sample trace of TJ induced outward current. Note the current can decay on its own. B. The TJ induced current (upper panel) and its I/V relationships (lower panel). Cells were held at […] and were subject to depolarizing voltage ramps from […] to +50 mV (250 ms duration) with a frequency of 0.1 Hz. Since the current measured at the peak c is out of the current amplitude range of the amplifier, another point near the peak (b) was chosen to construct the I/V curves of the current. C, D, E, and F. Biophysical properties of TREK-1 a heat-activated K2P channel. […] I. Summary of the inhibitory effects of Zn^2+ and quinidine on the TJ induced current (unpaired p<0.01, t-test).

The test system of the next assay is IKATP. Put plainly: IKATP activated by pinacidil together with low intracellular ATP, patch clamp in myocytes. It is filed as cell-based, guinea pig. The settings on record: for effect on IKATP: IKATP activated by pinacidil 100 μM with intracellular ATP 0.1 mM, Zn^2+ 3 mM.
The subject of another assay is myocytes. Nature of the assay: Myocyte shrinkage associated with the NaCN induced current. It is filed as cell-based, guinea pig. Particulars: quinidine 0.5 mM, Zn2+ 3 mM.

Entries after “also recorded” stand apart in the source; their conditions may differ. Where two headings read alike, the source gives them in different places.

Experimental for IKATP: All the cells were held at 0 mV.
Single Guinea pig heart cell preparation. Single cardiac myocytes were enzymatically isolated from adult male guinea pig hearts as described in (Gao et al 1992, J Physiol 449:689-704). Guinea pigs, weighing 300 to 500 g, were sacrificed by peritoneal injection with sodium pentobarbital solution (1 ml of 390 mg/ml) in accordance with an approved protocol approved by the IACUC committee at SUNY-Stony Brook. The heart was isolated and placed in Ca^2+ free Tyrode solution and the aorta was cannulated. The heart was then perfused with 50 ml of Ca2+ free Tyrode solution followed by 100 ml of Tyrode solution containing 30 mol/L CaCl2 and 0.4 mg/ml collagenase at 37° C. The heart was then placed in Ca^2+ free Tyrode solution at room temperature for 2 hours. Afterward, a piece of the ventricle was dissected and teased into smaller pieces in Kraft-Brühe (KB) solution (Isenberg et al., 1982 Pflugers Arch 395:6-18) containing (in mM): KCl 83; K2HPO4 30; MgSO4 5; Na-Pyruvic Acid 5; β-OH-Butyric Acid 5; Creatine 5; Taurine 20; Glucose 10; EGTA 0.5; KOH 2; Na2-ATP 5; pH was adjusted to 7.2 by KOH. The dissociated cells were then kept in KB solution at room temperature for at least 1 hour before the experiment. All solutions were bubbled with 100% O2. The isolated cells were stored in KB solution. An Axopatch 1D amplifier (Axon Instruments, Inc) and the patch clamp technique were employed to observe cell membrane current. Patch-pipette resistances were 2 to 3 MΩ before sealing. The pipette solution contained (in mM): K-Aspartic Acid 125; KCl 15; KOH 10; MgCl2 1; HEPES 10; EGTA 11; Mg-ATP 1; pH was adjusted to 7.2 by KOH. The external Tyrode solution contained (in mM): NaCl 137.7; NaOH 2.3; KCl 4; MgCl2 1; HEPES 5; CaCl2 1; CdCl2 1; Glucose 10; pH was adjusted to 7.4 by NaOH. Under these conditions, the L-type Ca^2+ current, the Na^+/Ca^2+ exchange current and the Na^+/K^+ pump current will be absent. […] All experiments were carried out at room temperature (22±1° C.). […] All patch clamp data were digitized by the data acquisition program pClamp8 (Axon Instruments, Inc) for later analysis. Cell capacitance was obtained for each cell and currents were normalized to cell capacitances.

Regarding `Nc1ccncc1` [4AP, 4-Aminopyridine], the “peak current densities of NaCN induced current with blocker” value in assay [1] (4AP 4 mM, n=6) turned out to be 24.1±5.2 pA/pF. For the same molecule, the “effect on NaCN induced current” value in assay [1] (agent 4 mM) is listed as “not reduced”.

For the molecule `CCCCCC(O)CCCC(=O)O` (centres unmarked) [5-HD, 5-hydroxydecanoic acid], the “effect on NaCN induced current” value in assay [1] (agent 200 μM) is reported as “does not inhibit the NaCN induced current; also recorded: does not result in a reduced current amplitude”. Moreover, in assay [1], the “peak current densities induced by NaCN in the presence of blocker” value stood at 24.7±2.6 pA/pF and the “ratio of peak current density induced by NaCN in the presence of blocker to that on exposure to NaCN alone” value is on record as 1.3±0.1.

For the molecule `[Ba+2].[Cl-].[Cl-]` [Ba^2+, BaCl2], the “effect on NaCN induced current” value in assay [1] (Ba^2+ 20 mM) is recorded as “can prevent the appearance of the NaCN induced current”; in assay [1] (Ba^2+ 20 mM, listed as Ba2+) it was “abolished”; in assay [1] (Ba^2+ 5-10 mM), “Partial inhibition”; in assay [1] (Ba^2+ 20-40 mM), “almost complete elimination”; in assay [1] (agent 1 mM), “neither Ba^2+ (1 mM, upper panel) nor Cs^+ (3 mM, lower panel) can prevent the appearance of the NaCN induced current”; in assay [2], “partially blocked”.

`[Cl-].[Cs+]` [Cs^+, CsCl]: the “peak current densities of NaCN induced current with blocker” value in assay [1] (Cs^+ 3 mM, n=5) is on record as 19.1±2.4 pA/pF. The “effect on NaCN induced current” value in assay [1] (agent 3 mM, listed as Cs+) is “insensitive”; in assay [1] (agent 3 mM, listed as CsCl) it was “not affected”.

In the case of `COC(=O)[C@@H](N)CCCNC(=N)N[N+](=O)[O-]` [L-NAME], the “effect on NaCN induced current” value in assay [1] (agent 200 μM) is given as “reduced; also recorded: reduces the current”.

Take `N=C(N)NCCC[C@H](N)C(=O)O` [L-arginine]: the “effect on NaCN induced current” value in assay [1] was “can additionally activate an outward current; also recorded: increases the NaCN induced current”.

`[Cl-].[Cl-].[Zn+2]` [Zn^2+, ZnCl2]: the “effect on NaCN induced current” value in assay [1] (Zn^2+ 5 mM) is reported as “completely abolish”; in assay [1] (agent 3 mM) it was “reversibly abolished; also recorded: can prevent the appearance of the current induced by NaCN”; in assay [1] (agent 3 mM, listed as ZnCl2), “completely blocked; also recorded: abolished”. Also, in assay [1], the “sensitivity of NaCN induced current in the presence of altered internal pH” value is reported as “remains sensitive”. The “effect on TJ induced current” value in assay [3] is “can prevent the appearance of TJ induced current”. The “effect on IKATP” value in the assay with IKATP is on record as “cannot be blocked; also recorded: unaffected”. For the same molecule, the “effect on NaCN induced current and cell shrinkage” value in the assay with myocytes was “prevent the appearance of the NaCN induced current and cell shrinkage”.

For the molecule `COc1ccc(Cl)cc1C(=O)NCCc1ccc(S(=O)(=O)NC(=O)NC2CCCCC2)cc1` [glibenclamide], the “effect on NaCN induced current” value in assay [1] (agent 200 μM) is recorded as “does not prevent the appearance of the NaCN induced current; also recorded: could not be abolished”. Also, in assay [1], the “peak current densities induced by NaCN in the presence of blocker” value came out at 23.0±2.1 pA/pF and the “ratio of peak current density induced by NaCN in the presence of blocker to that on exposure to NaCN alone” value amounted to 1.2±0.1. Moreover, in the assay with IKATP, the “effect on IKATP” value is recorded as “abolished”.

Take `CCCCC/C=C\C/C=C\C/C=C\C/C=C\CCCC(=O)N[C@H](C)CO` [methanandamide]: the “effect on NaCN induced current” value is given as “does not block the current induced by NaCN” in assay [1] (methanandamide 20 μM); “does not prevent the appearance of the NaCN induced current” in assay [1] (methanandamide 20 μM to 100 μM); “significant increase” in assay [1] (methanandamide 40 and 100 μM); “significantly increased” in assay [1] (methanandamide 40 and 100 μM, listed as Methanandamide).

As to `CC(N/C(=N\C#N)Nc1ccncc1)C(C)(C)C` (centres unmarked) [pinacidil], the “activation of IKATP” value with IKATP (pinacidil 100 μM together with low intracellular ATP 0.1 mM) is listed as “activated”.

In the case of `C=C[C@H]1C[N@@]2CC[C@H]1C[C@@H]2[C@@H](O)c1ccnc2ccc(OC)cc12` [quinidine], the “effect on NaCN induced current” value in assay [1] (agent 1 mM) is “can prevent the appearance of the current induced by NaCN”; in assay [1] (quinidine 0.5 mM), “completely abolished; also recorded: can both block the peak current induced by NaCN and prevent its occurrence”. In assay [1], the “sensitivity of NaCN induced current in the presence of altered internal pH” value is recorded as “remains sensitive”. Moreover, the “effect on TJ induced current” value in assay [3] is recorded as “partially blocked”. Besides, in the assay with IKATP, the “effect on IKATP” value is “unaffected”. The “effect on NaCN induced current and cell shrinkage” value in the assay with myocytes is “prevent the appearance of the NaCN induced current and cell shrinkage”.
